What was measured:
Assay type in all cases: functional
[1] = Effect (3.0 uM) on K+-evoked release of [3H]acetylcholine from striatal slices of reserpine-alpha MPT treated mice evoked by two successive exposures (S1and S2) at 55 and 90 min after the start of perfusion.
[2] = Effect (0.0 uM) on K+-evoked release of [3H]acetylcholine from striatal slices of reserpine-alpha MPT treated mice evoked by two successive exposures (S1and S2) at 55 and 90 min after the start of perfusion.
[3] = Effect (1.0 uM) on K+-evoked release of [3H]acetylcholine from striatal slices of reserpine-alpha MPT treated mice evoked by two successive exposures (S1and S2) at 55 and 90 min after the start of perfusion.
[4] = Effect (0.3 uM) on K+-evoked release of [3H]acetylcholine from striatal slices of reserpine-alpha MPT treated mice evoked by two successive exposures (S1and S2) at 55 and 90 min after the start of perfusion.
[5] = organism: Mus musculus; experiment: Compound concentration that causes inhibition of [3H]-acetyl choline release by 50% was determined using reserpine-alpha MPT treated mice striatal slices

| SMILES | IC50 [5] | also measured |
| --- | --- | --- |
| C[S+](C)c1ccc2cc(O)c(O)cc2c1.[Br-] |  | Ratio [1]: 0.86; Ratio [2]: 0.98; Ratio [3]: 0.81; Ratio [4]: 0.85 |
| NC1CCc2cc(O)c(O)cc2C1 (stereo not drawn) | 0.01 µM |  |
| CC(N)Cc1ccc(O)c(O)c1 (stereo not drawn) | 10 µM |  |
| CN(C)CCc1ccc(O)c(O)c1 | 10 µM |  |
| NCCc1ccc(O)c(O)c1 [DOPAMINE] | 10 µM |  |

From ChEMBL document CHEMBL1122657, “Dopaminergic agonists: comparative actions of amine and sulfonium analogues of dopamine” (J Med Chem, 1984)
